Marks after values point to notes of the source that are not given here.
Tests used:
[1] = system: human colorectal cancer HT29 transplanted tumor; assay: Example 10: tumor growth in HT-29 transplanted tumor model; format: in vivo, nude mice; conditions: HT-29 model, DDP 5 mg/kg i.p. QW × 3, R01 18 mg/kg i.g. BID × 28
Procedure: The human colorectal cancer cell lines HT-29 were obtained from the Cell Bank of the Type Culture Collection Committee of Chinese Academy of Sciences (CAS, cryopreserved in liquid nitrogen in this assay).
HT-29 cells were routinely cultured in a McCoy […] containing 10% fetal bovine serum under culture conditions of 37° C. and 5% CO2. The cells were digested with 0.25% trypsin, and passaged according to the cell growth conditions with a passaging ratio of 1:3 to 1:4.
On D1 of the assay, the HT-29 cells in the logarithmic growth phase were collected, counted and resuspended in serum-free McCoy, and the cell concentration was adjusted to 4×10^7 cells/mL. The cells were pipetted with a pipette to disperse them evenly, and the cells were put into a 50-mL centrifuge tube, which was placed in an ice box. A 1-mL syringe was used to draw the cell suspension, which was injected subcutaneously into the axilla of the front right limb of a nude mouse. Each animal was inoculated with 100 μL (4×10^6 cells/mouse) to establish a HT-29 transplanted tumor model in nude mice. After the inoculation, the animal status and tumor growth were regularly observed. On D12, the tumor diameter was measured using an electronic vernier caliper. The data were input into an Excel spreadsheet to calculate the tumor volume. Tumor-bearing mice in good health and with similar tumor volumes (103 to 179 mm^3) were selected and divided into groups using randomized block method. After the start of the assay, the tumor diameter was measured regularly, the tumor volume was calculated, and the animal body weight was also weighed and recorded.

[2] = system: VEGF/VEGFR/p-VEGFR and other proteins in NCI-N87 transplanted tumor tissues; assay: Example 4: Western blot of NCI-N87 transplanted tumor tissue proteins; format: in vivo, nude mice; conditions: Western blot grayscale vs blank solvent group, compound of formula (I) 2 mg/kg
Procedure: Western Blot technology was used to quantitatively detect the expression of VEGF/VEGFR, Survivin and other proteins in tumor tissues. […] In this study, 50 μg of tumor tissue proteins were added to each well, and the working concentrations of the antibodies were diluted according to the instructions. Briefly: the tumor tissue was taken, lysed with an RIPA protein lysis solution containing 1% PMSF and mixed protease inhibitors, and centrifuged at 12000×g for 20 min to take the supernatant; the concentration of proteins was detected by BCA method; 10% SDS-PAGE gel electrophoresis was performed; the proteins from SDS-PAGE gel were transfered to a PVDF membrane by semi-dry […]; the membrane was blocked with a fast blocking buffer for 10 minutes, and a primary antibody at corresponding working concentration was added, and incubated at 4° C. overnight; the membrane was washed with TBST for 3 times, and incubated with a secondary antibody at room temperature for 1 h; after washing the membrane three times, an image was developed and saved, and the grayscale values were analyzed with Image lab; the anti-Vinculin antibody was used as an internal reference control antibody.
The grayscale of the Western blot bands were calculated with Image J software, and Graphpad Prism 5 was used for related statistical processing. A two-sided t-test was used for comparison between two groups. P>0.05 means no significance (NS), P<0.05 is *, […], and P<0.001 is ***.

[3] = Example 3: body weight of NCI-N87 tumor-bearing nude mice; format: in vivo, BALB/c nude mice; conditions: for Mean animal body weight / body weight loss rate: DDP 4/4/5/5 mg/kg i.p. QW×4
Procedure: The NCI-N87 cells in the logarithmic growth phase were collected, counted and resuspended in a serum-free RPMI-1640 medium, and the cell concentration was adjusted to 5×10^7 cells/mL. The cells were pipetted with a pipette to disperse them evenly, and the cells were put into a 50-mL centrifuge tube, which was placed in an ice box. A 1-mL syringe was used to draw the cell suspension, which was injected subcutaneously into the axilla of the front right limb of a nude mouse. Each animal was inoculated with 100 μL (5×10^6 cells/mouse) to establish an NCI-N87 transplanted tumor model in nude mice. After the inoculation, the animal status and tumor growth were regularly observed, and the tumor diameter was measured using an electronic vernier caliper. The data were input into an Excel spreadsheet to calculate the tumor volume. When the tumor volume reached 100 to 300 mm^3, 72 animals in good health and with similar tumor volumes were selected and divided into 9 groups (n=8) using randomized block method. The day of grouping was regarded as the first day of the assay (D1). After the start of the assay, the tumor diameter was measured twice a week, the tumor volume was calculated, and the animal body weight was also weighed and recorded. [table] The calculation formula of animal weight loss rate is: wherein BWt represents the animal body weight measured each time during the administration period; BWinitial represents the animal body weight when being grouped for administration. The assay data were calculated and processed statistically using Microsoft Office Excel 2007 software. Unless otherwise specified, the data were expressed as mean±standard error (Mean±SE), and t-test was used for comparison between two groups.

With N.N.[Cl][Pt][Cl] [DDP, cisplatin] the “Mean tumor volume ± SE” value ([1]; D 12 (grouping)) was 131 ± 8 mm^3, the “Mean tumor volume ± SE” value ([1]; D 15) was 178 ± 10 mm^3 and the “tumor growth inhibition rate” value ([1]; D 15) was “(37%)”. For the same compound, the “Mean tumor volume ± SE” value ([1]; D 19) was 263 ± 11** mm^3, the “tumor growth inhibition rate” value ([1]; D 19) was “(48%)” and the “Mean tumor volume ± SE” value ([1]; D 22) was 383 ± 25** mm^3. The “tumor growth inhibition rate” value ([1]; D 22) was “(36%)”, the “Mean tumor volume ± SE” value ([1]; D 26) was 484 ± 28** mm^3 and the “tumor growth inhibition rate” value ([1]; D 26) was “(39%)”. The “Mean tumor volume ± SE” value ([1]; D 29) was 582 ± 25** mm^3, the “tumor growth inhibition rate” value ([1]; D 29) was “(44%)” and the “Mean tumor volume ± SE” value ([1]; D 33) was 693 ± 34** mm^3. The “tumor growth inhibition rate” value ([1]; D 33) was “(48%)”, the “Mean tumor volume ± SE” value ([1]; D 36) was 777 ± 38** mm^3 and the “tumor growth inhibition rate” value ([1]; D 36) was “(47%)”. For the same compound, the “Mean tumor volume ± SE” value ([1]; D 40) was 896 ± 56** mm^3, the “tumor growth inhibition rate” value ([1]; D 40) was “(45%)” and the “expression of CyclinD1” value [2] was “up-regulated”. The “expression of VEGFA” value [2] was “down-regulated”, the “expression of VEGFR2” value [2] was “up-regulated” and the “expression of anti-apoptotic protein Survivin” value [2] was “down-regulated”. For the same compound, the “expression of cell cycle regulatory protein P21” value [2] was “down-regulated”, the “expression of p-VEGFR2” value [2] was “down-regulated” and the “expression of β-catenin” value [2] was “up-regulated”. The “Mean animal body weight” value ([3]; D13) was 18.5 ± 0.4 g, the “Mean animal body weight” value ([3]; D16) was 17.3 ± 0.4 g and the “body weight loss rate” value ([3]; D16) was “(6.2%)”. For the same compound, the “Mean animal body weight” value ([3]; D20) was 17.6 ± 0.4 g, the “body weight loss rate” value ([3]; D20) was “(4.8%)” and the “Mean animal body weight” value ([3]; D23) was 17.5 ± 0.4 g. For the same compound, the “body weight loss rate” value ([3]; D23) was “(5.1%)”, the “Mean animal body weight” value ([3]; D27) was 18.3 ± 0.6 g and the “body weight loss rate” value ([3]; D27) was “(1.1%)”. For the same compound, the “Mean animal body weight” value ([3]; D30) was 17.6 ± 0.4 g, the “body weight loss rate” value ([3]; D30) was “(4.7%)” and the “Mean animal body weight” value ([3]; D34) was 17.7 ± 0.4 g. The “body weight loss rate” value ([3]; D34) was “(4.3%)”, the “Mean animal body weight” value ([3]; D37) was 17.2 ± 0.4 g and the “body weight loss rate” value ([3]; D37) was “(6.8%)”. The “Mean animal body weight” value ([3]; D44) was 16.8 ± 0.4 g, the “body weight loss rate” value ([3]; D44) was “(8.9%)” and the “effect on body weight compared with blank control group” value ([3]; NCI-N87 tumor-bearing nude mice, summary of Table 6) was “decreased significantly”.
